Patent US8697656B2, “Compounds, in particular peptides, compositions comprising them and cosmetic and dermo-pharmaceutical uses” (SEDERMA, priority 2009, dated 2014)
Non-standard residues stand in square brackets, D forms with d. Residues, ends and D or L forms follow the SMILES beside them. *: point of attachment. Met(O2) = CS(=O)(=O)CC[CH](N)C(=O)O; Palmitoyl = CCCCCCCCCCCCCCCC(=O)*; Ava = NCCCCC(=O)O

Experiments:
dermal NHF = test: Immunostaining method for collagen I on dermal NHF (Table 7); format: cell-based, human; conditions: Table 7 Test 2
Excerpt: Table 7 Showing % Differences in Collagen I in the Dermis Compared to the Control for Dioxygenated Peptide Compounds According to the Immunostaining Method or to ELISA Test on Dermal NHF

[1] = test system: Normal human dermal fibroblasts (NHF); test: ELISA test on normal human dermal fibroblasts (NHF): macromolecules in culture supernatants; format: cell-based; conditions: Table 7 Test 1
Method: ELISA Test on Normal Human Dermal Fibroblasts (NHF)
This test examines the dermal molecules.
Normal human dermal fibroblasts are cultured in multi-well plates. The cells either are or are not placed in contact with the test substances for 3 days. The culture supernatants are removed and the quantity of macromolecules present (collagen I, fibronectin, collagen IV and hyaluronic acid) is assayed by ELISA.

| Compound | Collagen I in the dermis, Test 2 (% difference compared to the control) (dermal NHF; 4 ppm) | Collagen I in the dermis, Test 2 (% difference compared to the control) (dermal NHF; 6 ppm) | Collagen I in the dermis, Test 1 (% difference compared to the control) ([1]; 4 ppm) | Collagen I in the dermis, Test 1 (% difference compared to the control) ([1]; 6 ppm) | Collagen I in the dermis, Test 2 (% difference compared to the control) (dermal NHF; 2 ppm) | Collagen I in the dermis, Test 1 (% difference compared to the control) ([1]; 2 ppm) |
| --- | --- | --- | --- | --- | --- | --- |
| Pal-K-MO2-T-K-OH: Dioxygenated peptide compound, SEQ ID NO 33 (Palmitoyl-K[Met(O2)]TK-OH; SMILES CCCCCCCCCCCCCCCC(=O)N[C@@H](CCCCN)C(=O)N[C@@H](CCS(C)(=O)=O)C(=O)N[C@H](C(=O)N[C@@H](CCCCN)C(=O)O)[C@@H](C)O) | +192% | +217% | +45% | +194% |  |  |
| CCCCCCCCCCCCCCCC(=O)NC(CCS(C)(=O)=O)C(=O)NC(CCCCN)C(=O)O (stereo not shown) [Pal-MO2-K-OH] (Palmitoyl-[Met(O2)]-Lys-OH; configuration not given here) | +457% | +226% |  |  | +270% |  |
| CCCCCCCCCCCCCCCC(=O)NC(CCS(C)(=O)=O)C(=O)NCCCCC(N)=O (stereo not shown) [Pal-MO2-Ava-NH2] | +582% | +461% |  |  | +375% |  |
| Pal-K-Ava-MO2-K-OH: Dioxygenated peptide compound, SEQ ID NO 35 (Palmitoyl-K[Ava][Met(O2)]K-OH; SMILES CCCCCCCCCCCCCCCC(=O)N[C@@H](CCCCN)C(=O)NCCCCC(=O)N[C@@H](CCS(C)(=O)=O)C(=O)N[C@@H](CCCCN)C(=O)O) |  |  | +167% |  |  | +63% |
| Pal-MO2-T-K-F-OH: Dioxygenated peptide compound, SEQ ID NO 29 | +456% | +520% | +111% | +148% | +218% |  |
| Pal-K-F-MO2-K-OH: Dioxygenated peptide compound, SEQ ID NO 31 (Palmitoyl-KF[Met(O2)]K-OH; SMILES CCCCCCCCCCCCCCCC(=O)N[C@@H](CCCCN)C(=O)N[C@@H](Cc1ccccc1)C(=O)N[C@@H](CCS(C)(=O)=O)C(=O)N[C@@H](CCCCN)C(=O)O) |  |  | +80% | +81% |  |  |
| Pal-K-T-MO2-K-OH: Dioxygenated peptide compound, SEQ ID NO 30 (Palmitoyl-KT[Met(O2)]K-OH; SMILES CCCCCCCCCCCCCCCC(=O)N[C@@H](CCCCN)C(=O)N[C@H](C(=O)N[C@@H](CCS(C)(=O)=O)C(=O)N[C@@H](CCCCN)C(=O)O)[C@@H](C)O) | +341% | +262% | +75% | +161% | +273% |  |
| Pal-K-T-F-MO2-NH2: Dioxygenated peptide compound, SEQ ID NO 32 (Palmitoyl-KTF[Met(O2)]-NH2; SMILES CCCCCCCCCCCCCCCC(=O)N[C@@H](CCCCN)C(=O)N[C@H](C(=O)N[C@@H](Cc1ccccc1)C(=O)N[C@@H](CCS(C)(=O)=O)C(N)=O)[C@@H](C)O) | +420% | +400% | +106% | +121% | +267% |  |
| CCCCCCCCCCCCCCCC(=O)NCCCCC(=O)NC(CCS(C)(=O)=O)C(N)=O (stereo not drawn) [Pal-Ava-MO2-NH2] | +667% | +557% |  |  | +495% |  |
| Pal-K-MO2-F-K-OH: Dioxygenated peptide compound, SEQ ID NO 34 (Palmitoyl-K[Met(O2)]FK-OH; SMILES CCCCCCCCCCCCCCCC(=O)N[C@@H](CCCCN)C(=O)N[C@@H](CCS(C)(=O)=O)C(=O)N[C@@H](Cc1ccccc1)C(=O)N[C@@H](CCCCN)C(=O)O) |  |  | +91% |  |  |  |
| Pal-K-MO2-Ava-K-OH: Dioxygenated peptide compound, SEQ ID NO 36 (Palmitoyl-K[Met(O2)][Ava]K-OH; SMILES CCCCCCCCCCCCCCCC(=O)N[C@@H](CCCCN)C(=O)N[C@@H](CCS(C)(=O)=O)C(=O)NCCCCC(=O)N[C@@H](CCCCN)C(=O)O) |  |  |  |  |  | +75% |
